Measured values from patent publication US11807835B2, “Detergent compositions containing a stabilized enzyme by phosphonates” (ECOLAB USA INC., priority 2016, dated 2023).

Tests used:
lipase = experiment: Lipase activity retention in detergent use solution (4000 ppm, 5 GPG water; p-nitrophenyl valerate, TRIS buffer pH 8.0); assay type: biochemical; settings: base formula
Summary of the method: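 Lipase stability was measured in a detergent use solution under conditions mimicking presoak or manual warewash, with stirring in a water bath. Aliquots were taken over time and flash-frozen. Thawed samples were diluted in TRIS buffer at pH 8.0 and assayed with p-nitrophenyl valerate as substrate on a plate reader. Activity is reported as % retained relative to the time=0 sample.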

protease = experiment: Protease activity retention in detergent use solution (4000 ppm, 5 GPG water; peptidyl substrate, glycine buffer pH 9.0); assay type: biochemical; settings: base formula, use solution at 120° F.
Summary of the method: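 Detergent use solutions at 4000 ppm in 5 GPG water were held at 120° F with stirring and sampled up to 4 h, with aliquots flash-frozen. Activity was read on a peptidyl substrate in glycine buffer pH 9.0 by absorbance against a calibration curve. Retention is % activity relative to the t=0 sample.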

Polyamino Polyether Methylene Phosphonic Acid [PAPEMP]
Relative Lipase Enzyme Activity (lipase; phosphonate 0.3 wt-%, use solution at 120° F., time 0 min): 49.99% | Relative Lipase Enzyme Activity (lipase; phosphonate 0.3 wt-%, use solution at 120° F., time 5 min): 100.00% | Relative Lipase Enzyme Activity (lipase; phosphonate 0.3 wt-%, use solution at 120° F., time 10 min): 92.85% | Relative Lipase Enzyme Activity (lipase; phosphonate 0.3 wt-%, use solution at 120° F., time 20 min): 77.81% | Relative Lipase Enzyme Activity (lipase; phosphonate 0.3 wt-%, use solution at 120° F., time 40 min): 54.24% | Relative Lipase Enzyme Activity (lipase; phosphonate 0.3 wt-%, use solution at 120° F., time 60 min): 51.08% | Relative Lipase Enzyme Activity (lipase; phosphonate 0.3 wt-%, use solution at 120° F., time 90 min): 45.80% | Relative Lipase Enzyme Activity (lipase; phosphonate 0.3 wt-%, use solution at 120° F., time 120 min): 36.29% | Relative Lipase Enzyme Activity (lipase; phosphonate 0.3 wt-%, use solution at 120° F., time 150 min): 33.14% | Relative Lipase Enzyme Activity (lipase; phosphonate 0.3 wt-%, use solution at 120° F., time 180 min): 28.25% | Relative Lipase Enzyme Activity (lipase; phosphonate 0.3 wt-%, use solution at 120° F., time 210 min): 26.56% | Relative Lipase Enzyme Activity (lipase; phosphonate 0.3 wt-%, use solution at 120° F., time 240 min): 24.03% | Relative Lipase Enzyme Activity (lipase; phosphonate 0.6 wt-%, use solution at 120º F., time 0 min): 100.00% | Relative Lipase Enzyme Activity (lipase; phosphonate 0.6 wt-%, use solution at 120º F., time 5 min): 86.04% | Relative Lipase Enzyme Activity (lipase; phosphonate 0.6 wt-%, use solution at 120º F., time 10 min): 83.42% | Relative Lipase Enzyme Activity (lipase; phosphonate 0.6 wt-%, use solution at 120º F., time 20 min): 73.22% | Relative Lipase Enzyme Activity (lipase; phosphonate 0.6 wt-%, use solution at 120º F., time 40 min): 64.86% | Relative Lipase Enzyme Activity (lipase; phosphonate 0.6 wt-%, use solution at 120º F., time 60 min): 59.26% | Relative Lipase Enzyme Activity (lipase; phosphonate 0.6 wt-%, use solution at 120º F., time 90 min): 47.33% | Relative Lipase Enzyme Activity (lipase; phosphonate 0.6 wt-%, use solution at 120º F., time 120 min): 42.05% | Relative Lipase Enzyme Activity (lipase; phosphonate 0.6 wt-%, use solution at 120º F., time 150 min): 38.58% | Relative Lipase Enzyme Activity (lipase; phosphonate 0.6 wt-%, use solution at 120º F., time 180 min): 29.04% | Relative Lipase Enzyme Activity (lipase; phosphonate 0.6 wt-%, use solution at 120º F., time 210 min): 31.37% | Relative Lipase Enzyme Activity (lipase; phosphonate 0.6 wt-%, use solution at 120º F., time 240 min): 29.77% | Relative Lipase Enzyme Activity (lipase; phosphonate at 0.1% elemental phosphorus, at 120º F. or at room temperature (as titled), time 0 min): 100.00% | Relative Lipase Enzyme Activity (lipase; phosphonate at 0.1% elemental phosphorus, at 120º F. or at room temperature (as titled), time 5 min): 91.09% | Relative Lipase Enzyme Activity (lipase; phosphonate at 0.1% elemental phosphorus, at 120º F. or at room temperature (as titled), time 10 min): 83.66% | Relative Lipase Enzyme Activity (lipase; phosphonate at 0.1% elemental phosphorus, at 120º F. or at room temperature (as titled), time 20 min): 75.51% | Relative Lipase Enzyme Activity (lipase; phosphonate at 0.1% elemental phosphorus, at 120º F. or at room temperature (as titled), time 40 min): 58.49% | Relative Lipase Enzyme Activity (lipase; phosphonate at 0.1% elemental phosphorus, at 120º F. or at room temperature (as titled), time 60 min): 54.87% | Relative Lipase Enzyme Activity (lipase; phosphonate at 0.1% elemental phosphorus, at 120º F. or at room temperature (as titled), time 90 min): 48.29% | Relative Lipase Enzyme Activity (lipase; phosphonate at 0.1% elemental phosphorus, at 120º F. or at room temperature (as titled), time 120 min): 42.46% | Relative Lipase Enzyme Activity (lipase; phosphonate at 0.1% elemental phosphorus, at 120º F. or at room temperature (as titled), time 150 min): 38.07% | Relative Lipase Enzyme Activity (lipase; phosphonate at 0.1% elemental phosphorus, at 120º F. or at room temperature (as titled), time 180 min): 33.57% | Relative Lipase Enzyme Activity (lipase; phosphonate at 0.1% elemental phosphorus, at 120º F. or at room temperature (as titled), time 210 min): 31.15% | Relative Lipase Enzyme Activity (lipase; phosphonate at 0.1% elemental phosphorus, at 120º F. or at room temperature (as titled), time 240 min): 31.01% | Relative Protease Enzyme Activity (protease; phosphonate 0.3 wt-%, lower half of Table 4A, time 5): 107.31% | Relative Protease Enzyme Activity (protease; phosphonate 0.3 wt-%, lower half of Table 4A, time 20): 105.51% | Relative Protease Enzyme Activity (protease; phosphonate 0.3 wt-%, lower half of Table 4A, time 90): 96.21% | Relative Protease Enzyme Activity (protease; phosphonate 0.3 wt-%, lower half of Table 4A, time 120): 99.48% | Relative Protease Enzyme Activity (protease; phosphonate 0.3 wt-%, lower half of Table 4A, time 150, unit not given): 93.74% | Relative Protease Enzyme Activity (protease; phosphonate 0.3 wt-%, lower half of Table 4A, time 210): 92.79% | Relative Protease Enzyme Activity (protease; phosphonate 0.3 wt-%, lower half of Table 4A, time '0'): 100.00% | Relative Protease Enzyme Activity (protease; phosphonate 0.3 wt-%, lower half of Table 4A, time '40'): 100.17% | Relative Protease Enzyme Activity (protease; phosphonate 0.3 wt-%, lower half of Table 4A, time 'Blank'): 100.00% | Relative Protease Enzyme Activity (protease; phosphonate 0.3 wt-%, lower half of Table 4A, time row printed '10'): 109.98% | Relative Protease Enzyme Activity (protease; phosphonate 0.3 wt-%, lower half of Table 4A, time row printed '60'): 89.50% | Relative Protease Enzyme Activity (protease; phosphonate 0.3 wt-%, lower half of Table 4A, time row printed '180'): 86.60% | Relative Protease Enzyme Activity (protease; phosphonate 0.6 wt-%, time 0 min): 100.00% | Relative Protease Enzyme Activity (protease; phosphonate 0.6 wt-%, time 5 min): 98.49% | Relative Protease Enzyme Activity (protease; phosphonate 0.6 wt-%, time 10 min): 96.69% | Relative Protease Enzyme Activity (protease; phosphonate 0.6 wt-%, time 20 min): 93.71% | Relative Protease Enzyme Activity (protease; phosphonate 0.6 wt-%, time 40 min): 92.60% | Relative Protease Enzyme Activity (protease; phosphonate 0.6 wt-%, time 60 min): 92.60% | Relative Protease Enzyme Activity (protease; phosphonate 0.6 wt-%, time 90 min): 86.28% | Relative Protease Enzyme Activity (protease; phosphonate 0.6 wt-%, time 120 min): 88.30% | Relative Protease Enzyme Activity (protease; phosphonate 0.6 wt-%, time 150 min): 89.66% | Relative Protease Enzyme Activity (protease; phosphonate 0.6 wt-%, time 180 min): 86.90% | Relative Protease Enzyme Activity (protease; phosphonate 0.6 wt-%, time 210 min): 87.49% | Relative Protease Enzyme Activity (protease; phosphonate 0.6 wt-%, time 240 min): 86.53% | Relative Protease Enzyme Activity (protease; phosphonate at 0.1% elemental phosphorus, time 0 min): 100.00% | Relative Protease Enzyme Activity (protease; phosphonate at 0.1% elemental phosphorus, time 5 min): 95.74% | Relative Protease Enzyme Activity (protease; phosphonate at 0.1% elemental phosphorus, time 10 min): 95.47% | Relative Protease Enzyme Activity (protease; phosphonate at 0.1% elemental phosphorus, time 20 min): 92.78% | Relative Protease Enzyme Activity (protease; phosphonate at 0.1% elemental phosphorus, time 40 min): 86.55% | Relative Protease Enzyme Activity (protease; phosphonate at 0.1% elemental phosphorus, time 60 min): 87.49% | Relative Protease Enzyme Activity (protease; phosphonate at 0.1% elemental phosphorus, time 90 min): 86.61% | Relative Protease Enzyme Activity (protease; phosphonate at 0.1% elemental phosphorus, time 120 min): 86.34% | Relative Protease Enzyme Activity (protease; phosphonate at 0.1% elemental phosphorus, time 150 min): 84.01% | Relative Protease Enzyme Activity (protease; phosphonate at 0.1% elemental phosphorus, time 180 min): 71.92% | Relative Protease Enzyme Activity (protease; phosphonate at 0.1% elemental phosphorus, time 210 min): 80.74% | Relative Protease Enzyme Activity (protease; phosphonate at 0.1% elemental phosphorus, time 240 min): 79.08%
